Laboratory results taken from ChEMBL document CHEMBL4706623, “GPR52 Antagonist Reduces Huntingtin Levels and Ameliorates Huntington's Disease-Related Phenotypes” (J Med Chem, 2021).

Target: G-protein coupled receptor 52 (Homo sapiens, UniProt Q9Y2T5)
Assay: Antagonist activity at GPR52 (unknown origin) expressed in HEK293 cells assessed as inhibition of WO459-induced cAMP accumulation preincubated for 15 mins followed by WO459 addition and measured after 30 mins by LANCE Ultra cAMP kit based microplate reader analysis
Assay type: functional, cell-based
Details: read-out: IC50

G-protein coupled receptor 52, sequence (Q9Y2T5 whole entry): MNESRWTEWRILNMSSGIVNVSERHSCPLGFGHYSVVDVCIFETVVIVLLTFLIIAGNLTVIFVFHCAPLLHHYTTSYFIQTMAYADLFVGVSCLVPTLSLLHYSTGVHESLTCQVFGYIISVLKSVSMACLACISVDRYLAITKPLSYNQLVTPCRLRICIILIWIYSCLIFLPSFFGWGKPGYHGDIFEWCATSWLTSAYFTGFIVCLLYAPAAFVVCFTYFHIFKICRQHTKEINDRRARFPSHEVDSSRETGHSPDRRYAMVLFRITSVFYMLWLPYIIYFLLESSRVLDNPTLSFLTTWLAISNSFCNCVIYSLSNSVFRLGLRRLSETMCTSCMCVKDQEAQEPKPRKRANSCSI

O=C(/C=C/CCc1ccccc1)c1ccccn1
IC50: 1820 nM
